Reference: ChEMBL document CHEMBL5042492, “Noncovalent CDK12/13 dual inhibitors-based PROTACs degrade CDK12-Cyclin K complex and induce synthetic lethality with PARP inhibitor” (Eur J Med Chem, 2022)
Activity calls are given as the source filed them. The calls are words filed in the database; no cut-off is given here.

Key:
[1] = biological target: T1, Protein cereblon/Cyclin-K/Cyclin-dependent kinase 12 (Homo sapiens, UniProt O75909+Q9NYV4+Q96SW2); test: Protac activity at human CRBN/CDK12/CycK in human Bel-7402 cells assessed as degradation of CDK12 at 3 uM measured after 24 hrs by Western blotting assay; format: cell-based
Target sequence in this assay (O75909 whole entry, looked up, the tested form may be a part): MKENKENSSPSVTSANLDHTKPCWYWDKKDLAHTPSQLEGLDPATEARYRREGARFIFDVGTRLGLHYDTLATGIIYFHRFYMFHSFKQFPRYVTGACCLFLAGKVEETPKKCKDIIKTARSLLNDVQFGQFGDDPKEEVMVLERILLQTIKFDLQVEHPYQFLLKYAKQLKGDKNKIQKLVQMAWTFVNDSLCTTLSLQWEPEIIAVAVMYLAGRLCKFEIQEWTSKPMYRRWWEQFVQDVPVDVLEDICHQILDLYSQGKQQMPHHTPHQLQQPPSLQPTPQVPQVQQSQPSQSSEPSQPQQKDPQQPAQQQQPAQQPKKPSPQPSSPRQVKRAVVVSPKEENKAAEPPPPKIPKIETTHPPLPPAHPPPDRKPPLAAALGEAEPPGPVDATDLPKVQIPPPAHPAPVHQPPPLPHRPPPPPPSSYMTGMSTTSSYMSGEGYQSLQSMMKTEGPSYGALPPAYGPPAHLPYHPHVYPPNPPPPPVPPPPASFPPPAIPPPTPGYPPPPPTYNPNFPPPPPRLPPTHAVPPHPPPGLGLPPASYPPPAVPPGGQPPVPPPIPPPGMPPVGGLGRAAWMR
Target sequence in this assay (Q96SW2 whole entry, looked up, the tested form may be a part): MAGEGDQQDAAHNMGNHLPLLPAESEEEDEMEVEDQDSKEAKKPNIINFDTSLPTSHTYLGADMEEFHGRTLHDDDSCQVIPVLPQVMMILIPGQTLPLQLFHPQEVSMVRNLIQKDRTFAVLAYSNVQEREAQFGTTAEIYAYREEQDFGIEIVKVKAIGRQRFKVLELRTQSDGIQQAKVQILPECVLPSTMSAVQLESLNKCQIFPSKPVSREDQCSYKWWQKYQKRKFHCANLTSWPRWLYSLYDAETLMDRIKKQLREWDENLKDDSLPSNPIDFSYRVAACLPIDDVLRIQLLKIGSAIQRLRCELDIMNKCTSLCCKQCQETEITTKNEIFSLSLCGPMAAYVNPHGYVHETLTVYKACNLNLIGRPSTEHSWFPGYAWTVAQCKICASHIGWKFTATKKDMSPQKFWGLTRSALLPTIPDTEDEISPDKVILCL
Target sequence in this assay (Q9NYV4 whole entry, looked up, the tested form may be a part): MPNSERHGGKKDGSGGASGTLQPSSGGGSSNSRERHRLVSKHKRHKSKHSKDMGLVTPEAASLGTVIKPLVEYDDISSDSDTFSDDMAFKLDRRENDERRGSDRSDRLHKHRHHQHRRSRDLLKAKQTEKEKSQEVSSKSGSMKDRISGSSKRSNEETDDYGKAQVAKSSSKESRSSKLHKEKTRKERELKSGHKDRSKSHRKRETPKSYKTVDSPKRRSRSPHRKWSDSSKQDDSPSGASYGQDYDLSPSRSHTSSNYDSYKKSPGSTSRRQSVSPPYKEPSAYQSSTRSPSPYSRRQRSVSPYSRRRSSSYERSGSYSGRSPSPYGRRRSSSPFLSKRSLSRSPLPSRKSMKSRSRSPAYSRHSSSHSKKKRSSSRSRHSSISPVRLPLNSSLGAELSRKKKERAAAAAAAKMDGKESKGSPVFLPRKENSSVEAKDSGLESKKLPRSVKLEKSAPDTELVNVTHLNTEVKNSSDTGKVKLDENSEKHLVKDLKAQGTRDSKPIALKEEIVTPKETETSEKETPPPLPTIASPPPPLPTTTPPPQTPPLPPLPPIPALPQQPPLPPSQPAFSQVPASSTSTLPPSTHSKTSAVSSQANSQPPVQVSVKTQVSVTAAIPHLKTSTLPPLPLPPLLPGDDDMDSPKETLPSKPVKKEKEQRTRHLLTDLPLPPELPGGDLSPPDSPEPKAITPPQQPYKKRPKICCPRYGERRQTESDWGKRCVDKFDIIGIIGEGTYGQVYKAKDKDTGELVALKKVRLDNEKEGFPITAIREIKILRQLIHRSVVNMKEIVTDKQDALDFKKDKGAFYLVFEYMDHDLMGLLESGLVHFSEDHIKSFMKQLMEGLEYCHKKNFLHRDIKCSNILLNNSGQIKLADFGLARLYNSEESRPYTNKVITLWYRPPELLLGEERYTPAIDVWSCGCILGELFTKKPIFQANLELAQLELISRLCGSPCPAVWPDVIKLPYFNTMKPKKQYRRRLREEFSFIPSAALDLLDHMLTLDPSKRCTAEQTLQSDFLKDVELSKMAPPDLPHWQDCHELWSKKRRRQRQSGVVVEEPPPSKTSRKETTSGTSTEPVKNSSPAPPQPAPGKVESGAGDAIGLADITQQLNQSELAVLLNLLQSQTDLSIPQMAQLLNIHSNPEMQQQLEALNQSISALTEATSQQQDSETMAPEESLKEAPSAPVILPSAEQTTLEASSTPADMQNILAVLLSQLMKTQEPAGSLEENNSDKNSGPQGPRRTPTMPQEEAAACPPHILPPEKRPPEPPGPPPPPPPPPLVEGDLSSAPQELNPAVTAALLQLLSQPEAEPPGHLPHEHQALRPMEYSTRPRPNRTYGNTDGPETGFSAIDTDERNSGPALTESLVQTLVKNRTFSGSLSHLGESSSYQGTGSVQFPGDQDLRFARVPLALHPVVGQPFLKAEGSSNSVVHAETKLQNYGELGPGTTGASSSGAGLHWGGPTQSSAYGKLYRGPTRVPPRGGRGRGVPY

CDK12/Cyclin K = CDK12/Cyclin K (Homo sapiens, UniProt Q9NYV4); test: Inhibition of human CDK12 (696 to 1082 residues) /cyclinK (1 to 300 residues) using ac-YSPTSPpSYSPTSFpS-YSPTSPpSY-[PEG2]-RR-amid peptide as substrate in presence of ATP measured after 2 hrs by ADP-Glo kinase assay; format: protein-complex assay
[2] = biological target: T1, Protein cereblon/Cyclin-K/Cyclin-dependent kinase 12; test: Protac activity at human CRBN/CDK12/CycK in human MDA-MB-231 cells assessed as degradation of CDK12 at 3 uM measured after 24 hrs by Western blotting assay; format: cell-based
Target sequence in this assay (O75909 whole entry, looked up, the tested form may be a part): as the sequence (O75909 whole entry, looked up, the tested form may be a part) above
Target sequence in this assay (Q96SW2 whole entry, looked up, the tested form may be a part): as the sequence (Q96SW2 whole entry, looked up, the tested form may be a part) above
Target sequence in this assay (Q9NYV4 whole entry, looked up, the tested form may be a part): as the sequence (Q9NYV4 whole entry, looked up, the tested form may be a part) above

[3] = biological target: T1, Protein cereblon/Cyclin-K/Cyclin-dependent kinase 12; test: Protac activity at human CRBN/CDK12/CycK in human Bel-7402 cells assessed as degradation of CDK12 measured after 24 hrs by Western blotting assay; format: cell-based
[4] = biological target: T1, Protein cereblon/Cyclin-K/Cyclin-dependent kinase 12; test: Protac activity at human CRBN/CDK12/CycK in human Bel-7402 cells assessed as degradation of CycK measured after 24 hrs by Western blotting assay; format: cell-based
[5] = biological target: T1, Protein cereblon/Cyclin-K/Cyclin-dependent kinase 12; test: Protac activity at human CRBN/CDK12/CycK in human MDA-MB-231 cells assessed as degradation of CDK12 measured after 24 hrs by Western blotting assay; format: cell-based
[6] = biological target: T1, Protein cereblon/Cyclin-K/Cyclin-dependent kinase 12; test: Protac activity at human CRBN/CDK12/CycK in human MDA-MB-231 cells assessed as degradation of CycK measured after 24 hrs by Western blotting assay; format: cell-based
[7] = biological target: T1, Protein cereblon/Cyclin-K/Cyclin-dependent kinase 12; test: Protac activity at human CRBN/CDK12/CycK in human Bel-7402 cells assessed as degradation of CDK7 up to 30 uM measured after 24 hrs by Western blotting assay; format: cell-based; details: dose microM <=30, time 24.0 hrs
Target sequence in this assay (O75909 whole entry, looked up, the tested form may be a part): as the sequence (O75909 whole entry, looked up, the tested form may be a part) above
Target sequence in this assay (Q96SW2 whole entry, looked up, the tested form may be a part): as the sequence (Q96SW2 whole entry, looked up, the tested form may be a part) above
Target sequence in this assay (Q9NYV4 whole entry, looked up, the tested form may be a part): as the sequence (Q9NYV4 whole entry, looked up, the tested form may be a part) above

[8] = biological target: T1, Protein cereblon/Cyclin-K/Cyclin-dependent kinase 12; test: Protac activity at human CRBN/CDK12/CycK in human MDA-MB-231 cells assessed as degradation of CDK7 up to 30 uM measured after 24 hrs by Western blotting assay; format: cell-based; details: dose microM <=30, time 24.0 hrs
Target sequence in this assay (O75909 whole entry, looked up, the tested form may be a part): as the sequence (O75909 whole entry, looked up, the tested form may be a part) above
Target sequence in this assay (Q96SW2 whole entry, looked up, the tested form may be a part): as the sequence (Q96SW2 whole entry, looked up, the tested form may be a part) above
Target sequence in this assay (Q9NYV4 whole entry, looked up, the tested form may be a part): as the sequence (Q9NYV4 whole entry, looked up, the tested form may be a part) above

[9] = biological target: T1, Protein cereblon/Cyclin-K/Cyclin-dependent kinase 12; test: Protac activity at human CRBN/CDK12/CycK in human Bel-7402 cells assessed as degradation of CDK9 upto 30 uM measured after 24 hrs by Western blotting assay; format: cell-based; details: dose microM <=30, time 24.0 hrs
Target sequence in this assay (O75909 whole entry, looked up, the tested form may be a part): as the sequence (O75909 whole entry, looked up, the tested form may be a part) above
Target sequence in this assay (Q96SW2 whole entry, looked up, the tested form may be a part): as the sequence (Q96SW2 whole entry, looked up, the tested form may be a part) above
Target sequence in this assay (Q9NYV4 whole entry, looked up, the tested form may be a part): as the sequence (Q9NYV4 whole entry, looked up, the tested form may be a part) above

[10] = biological target: T1, Protein cereblon/Cyclin-K/Cyclin-dependent kinase 12; test: Protac activity at human CRBN/CDK12/CycK in human Bel-7402 cells assessed as RNAP2 CTD Ser2 phosphorylation level at 0.1 to 30 uM measured after 24 hrs by Western blotting assay; format: cell-based; details: dose 0.1-30 µM
Target sequence in this assay (O75909 whole entry, looked up, the tested form may be a part): as the sequence (O75909 whole entry, looked up, the tested form may be a part) above
Target sequence in this assay (Q96SW2 whole entry, looked up, the tested form may be a part): as the sequence (Q96SW2 whole entry, looked up, the tested form may be a part) above
Target sequence in this assay (Q9NYV4 whole entry, looked up, the tested form may be a part): as the sequence (Q9NYV4 whole entry, looked up, the tested form may be a part) above

[11] = biological target: T1, Protein cereblon/Cyclin-K/Cyclin-dependent kinase 12; test: Protac activity at human CRBN/CDK12/CycK in human MDA-MB-231 cells assessed as degradation of CDK9 up to 30 uM measured after 24 hrs by Western blotting assay; format: cell-based; details: dose microM <=30, time 24.0 hrs
[12] = biological target: T1, Protein cereblon/Cyclin-K/Cyclin-dependent kinase 12; test: Protac activity at human CRBN/CDK12/CycK in human MDA-MB-231 cells assessed as RNAP2 CTD Ser2 phosphorylation level at 0.1 to 30 uM measured after 24 hrs by Western blotting assay; format: cell-based; details: dose 0.1-30 µM
[13] = biological target: T1, Protein cereblon/Cyclin-K/Cyclin-dependent kinase 12; test: Protac activity at human CRBN/CDK12/CycK in human Bel-7402 (CRBN/KO) cells assessed as degradation of CDK12 measured after 24 hrs by Western blotting assay; format: cell-based
[14] = biological target: T1, Protein cereblon/Cyclin-K/Cyclin-dependent kinase 12; test: Protac activity at human CRBN/CDK12/CycK in human MDA-MB-231(CRBN/KO) cells assessed as degradation of CDK12 measured after 24 hrs by Western blotting assay; format: cell-based
[15] = biological target: T1, Protein cereblon/Cyclin-K/Cyclin-dependent kinase 12; test: Protac activity at human CRBN/CDK12/CycK in human Bel-7402 cells assessed as downregulation of ATM measured after 6 hrs by RT-qPCR method; format: cell-based
[16] = biological target: T1, Protein cereblon/Cyclin-K/Cyclin-dependent kinase 12; test: Protac activity at human CRBN/CDK12/CycK in human MDA-MB-231 cells assessed as downregulation of ATM measured after 6 hrs by RT-qPCR method; format: cell-based
[17] = biological target: T1, Protein cereblon/Cyclin-K/Cyclin-dependent kinase 12; test: Protac activity at human CRBN/CDK12/CycK in human Bel-7402 cells assessed as downregulation of ATR measured after 6 hrs by RT-qPCR method; format: cell-based
[18] = biological target: T1, Protein cereblon/Cyclin-K/Cyclin-dependent kinase 12; test: Protac activity at human CRBN/CDK12/CycK in human MDA-MB-231 cells assessed as downregulation of ATR measured after 6 hrs by RT-qPCR method; format: cell-based
MDA-MB-231 [19] = test: Synergistic antiproliferative activity against human MDA-MB-231 cells in presence of 1 uM of Olaparib at 1 uM for 10 days by SRB staining based clone formation assay relative to control; format: functional; details: MDA-MB-231, 240 h, time 10 day
MDA-MB-231 [20] = test: Synergistic antiproliferative activity against human MDA-MB-231 cells in presence of 3 uM of Olaparib at 1 uM measured after 10 days by SRB staining based clone formation assay relative to control; format: functional; details: MDA-MB-231, 240 h, time 10 day
MDA-MB-231 [21] = test: Synergistic antiproliferative activity against human MDA-MB-231 cells in presence of 1 uM of Olaparib at 3 uM measured after 10 days by SRB staining based clone formation assay relative to control; format: functional; details: MDA-MB-231, 240 h, time 10 day
MDA-MB-231 [22] = test: Synergistic antiproliferative activity against human MDA-MB-231 cells in presence of 3 uM of Olaparib at 3 uM measured after 10 days by SRB staining based clone formation assay relative to control; format: functional; details: MDA-MB-231, 240 h, time 10 day
[23] = biological target: T1, Protein cereblon/Cyclin-K/Cyclin-dependent kinase 12; test: Protac activity at human CRBN/CDK12/CycK in human Bel-7402 cells assessed as downregulation of Mcl-1 level upto 30 uM measured after 24 hrs by Western blotting assay; format: cell-based; details: dose microM <=30, time 24.0 hrs

## CC(C)n1cnc2c(NCc3nc4cc(F)c(NCCCCCCCCNC(=O)COc5cccc6c5C(=O)N(C5CCC(=O)NC5=O)C6=O)cc4[nH]3)nc(N3CCOCC3)nc21 (centres undefined)
[1]
  Activity: Active
CDK12/Cyclin K
  IC50: 645 nM
[2]
  Activity: Active
[3]
  DC50: 416 nM
[4]
  DC50: 412 nM
[5]
  DC50: 416 nM
[6]
  DC50: 412 nM
[7]
  Activity: inactive
[8]
  Activity: inactive
[9]
  Activity: inactive
[10]
  Activity: Active
[11]
  Activity: inactive
[12]
  Activity: Active
[13]
  Activity: inactive
[14]
  Activity: inactive
[15]
  Activity: Active
[16]
  Activity: Active
[17]
  Activity: Active
[18]
  Activity: Active
MDA-MB-231 [19]
  inhibition at 1 µM: 67.8%
MDA-MB-231 [20]
  inhibition at 1 µM: 99.6%
MDA-MB-231 [21]
  inhibition at 3 µM: 99.2%
MDA-MB-231 [22]
  inhibition at 3 µM: 99.8%
[23]
  Activity: inactive
